# Measurements taken from article PMC11602157, “ZNF512B binds RBBP4 via a variant NuRD interaction motif and aggregates chromatin in a NuRD complex-independent manner” (Nucleic Acids Research, 2024).
# Target: T1, RBBP4 (Homo sapiens, UniProt Q09028)
# T1 construct: Expression of recombinant RBBP4 protein was done as described ([32]); His-tag (inferred from His-Trap purification); made in house
# Assay: Competitive fluorescence polarization (displacement of FAM-labeled ZNF512B tracer)
# Assay type: binding
# Settings: ratio of competitive ki, ZNF512B vs FOG-1
# Procedure: Expression of recombinant RBBP4 protein was done as described ([32]). RBBP4 was purified by FPLC using the Äkta Start (Cytiva) via a His-Trap column (71502768) and subsequently a HiTRAP Q column (29051325) by standard procedures outlined in the instructions of the manufacturer. To determine the dissociation constant (kD), serial dilutions of RBBP4 protein (10–0 μM, 25 μl) in 50 mM Tris/Cl pH 7.5, 150 mM NaCl and 0.02% Triton™ X-100 were added to 25 μl of the fluorescently tagged tracer peptide for a finale volume of 50 μl with 1 nM tracer. The 384-well plate (GBO 781 900) was measured (Tecan Spark 20M) after 60 min and the kD values were calculated by converting the mP values into their corresponding anisotropy (A) values following the equation:
# Hereby, A = anisotropy and P = polarization. These values were plotted versus the respective concentrations of the protein with a non-linear regression according to the following equation: […]
# Hereby, A is the experimental anisotropy, Af is the anisotropy for the free ligand, Ab is the anisotropy for the fully bound ligand, LT is the total added concentration of ligand, kD is the equilibrium dissociation constant and RT is the total receptor concentration. […] Inhibition constant (ki) values were calculated using the following equation described previously by Wang et al. and the standard deviation was calculated for each ki value ([35]).
# T1 sequence (Q09028 whole entry): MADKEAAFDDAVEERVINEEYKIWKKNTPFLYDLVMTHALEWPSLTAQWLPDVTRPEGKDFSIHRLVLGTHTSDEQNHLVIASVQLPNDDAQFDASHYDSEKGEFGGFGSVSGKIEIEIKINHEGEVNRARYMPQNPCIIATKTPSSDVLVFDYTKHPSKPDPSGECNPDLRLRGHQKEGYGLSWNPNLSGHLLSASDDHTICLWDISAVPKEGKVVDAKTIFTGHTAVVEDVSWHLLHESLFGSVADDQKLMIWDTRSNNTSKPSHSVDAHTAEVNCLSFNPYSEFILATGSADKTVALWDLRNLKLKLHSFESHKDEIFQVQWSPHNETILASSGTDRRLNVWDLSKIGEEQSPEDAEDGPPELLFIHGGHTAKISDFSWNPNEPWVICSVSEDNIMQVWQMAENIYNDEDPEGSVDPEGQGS
structure (smiles),measurement,value
CC(=O)N[C@@H](CCCCN)C(=O)N[C@@H](Cc1c[nH]cn1)C(=O)N[C@@H](CCCNC(=N)N)C(=O)N[C@@H](CCCNC(=N)N)C(=O)N[C@@H](CCCCN)C(=O)N[C@@H](CCC(N)=O)C(=O)N[C@@H](CCCCN)C(=O)N[C@H](C(=O)N1CCC[C@H]1C(=O)N[C@@H](CCCCN)C(=O)N[C@@H](CCCCN)C(=O)N[C@@H](Cc1ccccc1)C(N)=O)[C@@H](C)O [ZNF512B-WT],higher affinity for RBBP4 than FOG-1,> 60 -fold
